Data taken from patent publication US20180177725A1, “CELL MEMBRANE-FORMED NANOSCALE VESICLES AND METHODS OF USING THEREOF” (WASHINGTON STATE UNIVERSITY, priority 2015, published 2018).

System: LPS-induced acute lung inflammation
Test: Mouse acute lung inflammatory (ALI) model, LPS-induced
Type: in vivo
Conditions: TPCA-1 0.33 mg/kg i.v.
Description: Mouse acute lung inflammatory (ALI) model: CD1 male mice were utilized. ALI was induced by intracheal spray of LPS (10 mg/kg) using a Model ICA-IC-M MicroSprayer Aerosolizer (Pen-Century). Approximately 3 hours after LPS was challenged, mice were intravenously injected with HBSS, free drug (TPCA-1), TPCA-1 loaded erythrocyte vesicles and TPCA-1 loaded HL 60 vesicles at two doses of 0.33 and 1 mg/ kg.
Bronchoalveolar lavage fluid collection and cell count: At 13 hours post-LPS administration, mice were anesthetized with an i.p. injection of ketamine and xylazine mixture. The trachea was cannulated, and 1 ml HBSS was infused intratracheally and withdrawn to obtain lavage fluid. This procedure was repeated twice. […] The total cell number was determined with a hemocytometer. […] The percentages of neutrophils were determined after counting 200 cells in randomly selected fields.
Cytokine generation: Cytokine levels in the BAL were determined using commercial ELISA kits for TNF-α and IL-6 (Biolegend, San Diego, Calif.) according to the manufacturer's instructions. […]
Measurement of lung vascular permeability: The permeability was evaluated via the larvage protein content change. The total protein concentrations were determined using a BCA protein assay kit (Thermo scientific, Rockford, Ill.).

NC(=O)Nc1sc(-c2ccc(F)cc2)cc1C(N)=O [TPCA-1, 2-[(Aminocarbonyl)amino]-5-(4-fluorophenyl)-3-thiophenecarboxamide]
therapeutic benefit on neutrophil infiltration at low dose: rarely showed this benefit
